Measurements as given in ChEMBL document CHEMBL5465560, “Selectivity Literature for EUbOPEN Chemogenomic Library” (2024).

Key:
[1] = biological target: Serine/threonine-protein kinase 24 (Homo sapiens) (UniProt Q9Y6E0); assay: Selectivity interaction (KinomeScan (DiscoverX)) EUB0000092b STK24; conditions: at 10 µM
[2] = tested on: Serine/threonine-protein kinase B-raf (Homo sapiens), P15056 [V600E]; conditions: at 10 µM
[3] = biological target: Serine/threonine-protein kinase PAK 1 (Homo sapiens) (UniProt Q13153); assay: Selectivity interaction (ProQinase) EUB0000171b PAK1
[4] = tested on: Leucine-rich repeat serine/threonine-protein kinase 2 (Homo sapiens), Q5S007 [G2019S]; assay: (§1) Selectivity interaction (KinomeScan (DiscoverX)) EUB0001079a LRRK2; conditions: at 1 µM
[5] = biological target: Leucine-rich repeat serine/threonine-protein kinase 2 (Homo sapiens, UniProt Q5S007); assay: as §1; conditions: at 1 µM
[6] = biological target: Serine/threonine-protein kinase 17A (Homo sapiens, UniProt Q9UEE5)
[7] = biological target: T1, Serine/threonine-protein kinase haspin (Homo sapiens) (UniProt Q8TF76); assay: Selectivity interaction (Adapta Assay) EUB0001632a GSG2; conditions: at 10 µM
T1 sequence (whole entry): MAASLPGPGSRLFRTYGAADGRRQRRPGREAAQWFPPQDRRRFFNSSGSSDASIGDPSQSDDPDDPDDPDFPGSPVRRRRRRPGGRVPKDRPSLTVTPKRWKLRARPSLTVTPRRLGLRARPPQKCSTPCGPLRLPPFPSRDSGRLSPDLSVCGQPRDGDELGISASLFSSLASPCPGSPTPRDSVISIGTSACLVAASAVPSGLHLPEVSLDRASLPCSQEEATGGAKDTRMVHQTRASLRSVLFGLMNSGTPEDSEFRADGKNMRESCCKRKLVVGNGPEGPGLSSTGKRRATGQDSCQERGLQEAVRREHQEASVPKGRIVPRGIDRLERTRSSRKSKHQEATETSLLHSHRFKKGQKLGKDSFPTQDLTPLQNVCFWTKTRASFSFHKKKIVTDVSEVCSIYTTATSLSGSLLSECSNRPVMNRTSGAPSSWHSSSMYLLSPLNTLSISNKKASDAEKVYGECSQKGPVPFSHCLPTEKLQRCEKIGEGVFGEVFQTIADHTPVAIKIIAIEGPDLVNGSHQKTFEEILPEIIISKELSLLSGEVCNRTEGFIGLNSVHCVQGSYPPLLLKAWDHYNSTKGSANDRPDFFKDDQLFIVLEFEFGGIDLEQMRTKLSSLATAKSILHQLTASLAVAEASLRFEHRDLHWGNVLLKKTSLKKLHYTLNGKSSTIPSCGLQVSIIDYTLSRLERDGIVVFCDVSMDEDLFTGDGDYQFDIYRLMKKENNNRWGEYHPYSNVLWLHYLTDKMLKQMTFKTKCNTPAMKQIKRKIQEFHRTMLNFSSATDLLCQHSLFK

[8] = biological target: T2, Protein kinase C iota type (Homo sapiens) (UniProt P41743); assay: Selectivity interaction (Kinase panel (Z-LYTE Assay)) EUB0001632a PRKCI; conditions: at 10 µM
T2 sequence (whole entry): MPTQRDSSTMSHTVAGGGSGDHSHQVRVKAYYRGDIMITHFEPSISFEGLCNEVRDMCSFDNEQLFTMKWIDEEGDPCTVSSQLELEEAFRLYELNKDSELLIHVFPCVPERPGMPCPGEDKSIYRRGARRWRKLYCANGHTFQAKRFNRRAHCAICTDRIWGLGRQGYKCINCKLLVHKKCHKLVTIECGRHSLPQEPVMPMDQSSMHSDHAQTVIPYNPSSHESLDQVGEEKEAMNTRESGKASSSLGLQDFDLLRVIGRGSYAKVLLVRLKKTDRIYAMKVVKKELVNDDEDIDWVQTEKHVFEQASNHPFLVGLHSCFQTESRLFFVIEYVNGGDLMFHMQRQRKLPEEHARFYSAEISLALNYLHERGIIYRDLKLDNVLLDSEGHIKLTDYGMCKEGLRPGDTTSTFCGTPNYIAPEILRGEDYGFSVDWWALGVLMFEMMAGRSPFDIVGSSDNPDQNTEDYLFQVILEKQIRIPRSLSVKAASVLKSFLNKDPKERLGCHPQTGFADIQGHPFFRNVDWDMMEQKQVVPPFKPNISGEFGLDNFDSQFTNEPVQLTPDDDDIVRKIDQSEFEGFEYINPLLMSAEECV

[9] = biological target: STE20/SPS1-related proline-alanine-rich protein kinase (Homo sapiens) (UniProt Q9UEW8); assay: Selectivity interaction (LanthaScreen Eu Kinase Binding Assay) EUB0001632a STK39; conditions: at 10 µM
[10] = biological target: Ephrin type-A receptor 7 (Homo sapiens) (UniProt Q15375); assay: Selectivity interaction (KinomeScan (DiscoverX)) EUB0000595a EPHA7; conditions: at 10 µM
[11] = biological target: T3, Serine/threonine-protein kinase Nek9 (Homo sapiens) (UniProt Q8TD19); assay: Selectivity interaction (ActivX KiNativ screen (ex vivo kinase selectivity in human PBMCs)) EUB0001619a NEK9; format: cell-based; conditions: PBMC, at 1 µM
T3 sequence (whole entry): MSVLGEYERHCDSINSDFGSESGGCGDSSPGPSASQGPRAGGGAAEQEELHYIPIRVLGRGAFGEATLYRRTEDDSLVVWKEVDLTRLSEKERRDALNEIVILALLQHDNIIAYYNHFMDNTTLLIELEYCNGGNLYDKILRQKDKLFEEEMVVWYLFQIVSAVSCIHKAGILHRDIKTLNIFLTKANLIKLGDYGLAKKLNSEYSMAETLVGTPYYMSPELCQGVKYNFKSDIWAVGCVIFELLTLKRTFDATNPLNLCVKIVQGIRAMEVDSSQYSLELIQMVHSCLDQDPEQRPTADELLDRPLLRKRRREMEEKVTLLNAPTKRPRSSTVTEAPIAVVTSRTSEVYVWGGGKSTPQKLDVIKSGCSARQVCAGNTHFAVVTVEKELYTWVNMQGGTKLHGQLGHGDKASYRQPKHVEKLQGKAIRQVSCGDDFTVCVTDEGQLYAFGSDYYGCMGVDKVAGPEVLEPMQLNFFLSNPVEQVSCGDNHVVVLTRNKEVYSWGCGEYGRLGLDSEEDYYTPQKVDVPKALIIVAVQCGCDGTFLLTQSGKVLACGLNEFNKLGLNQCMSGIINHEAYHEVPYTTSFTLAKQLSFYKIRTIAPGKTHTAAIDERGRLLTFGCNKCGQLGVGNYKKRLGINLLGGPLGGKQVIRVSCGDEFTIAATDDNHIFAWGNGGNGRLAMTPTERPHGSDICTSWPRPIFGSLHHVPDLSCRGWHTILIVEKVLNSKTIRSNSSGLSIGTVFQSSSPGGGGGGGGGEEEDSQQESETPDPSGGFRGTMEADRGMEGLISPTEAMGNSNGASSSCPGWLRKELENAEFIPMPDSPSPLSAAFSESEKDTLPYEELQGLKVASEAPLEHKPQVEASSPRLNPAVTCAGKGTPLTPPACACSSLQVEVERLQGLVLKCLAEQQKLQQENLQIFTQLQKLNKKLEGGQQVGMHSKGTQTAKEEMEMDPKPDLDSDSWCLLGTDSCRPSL

Serine/threonine-protein kinase PAK 1 (Homo sapiens), sequence (Q13153 whole entry): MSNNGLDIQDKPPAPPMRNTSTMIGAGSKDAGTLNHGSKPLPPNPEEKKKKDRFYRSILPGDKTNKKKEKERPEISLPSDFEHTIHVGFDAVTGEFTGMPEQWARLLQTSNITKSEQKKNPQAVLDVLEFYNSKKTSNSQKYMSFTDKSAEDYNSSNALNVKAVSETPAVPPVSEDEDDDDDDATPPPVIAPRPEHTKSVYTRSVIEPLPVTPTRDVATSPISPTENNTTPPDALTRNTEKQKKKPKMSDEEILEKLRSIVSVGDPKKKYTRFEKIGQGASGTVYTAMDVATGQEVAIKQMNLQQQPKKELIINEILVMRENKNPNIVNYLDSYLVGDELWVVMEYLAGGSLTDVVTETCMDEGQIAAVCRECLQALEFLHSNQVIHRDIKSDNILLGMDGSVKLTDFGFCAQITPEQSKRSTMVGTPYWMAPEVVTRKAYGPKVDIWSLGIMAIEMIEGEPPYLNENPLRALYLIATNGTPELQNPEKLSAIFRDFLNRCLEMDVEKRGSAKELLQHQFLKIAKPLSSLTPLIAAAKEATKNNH
Leucine-rich repeat serine/threonine-protein kinase 2, sequence (Q5S007 whole entry): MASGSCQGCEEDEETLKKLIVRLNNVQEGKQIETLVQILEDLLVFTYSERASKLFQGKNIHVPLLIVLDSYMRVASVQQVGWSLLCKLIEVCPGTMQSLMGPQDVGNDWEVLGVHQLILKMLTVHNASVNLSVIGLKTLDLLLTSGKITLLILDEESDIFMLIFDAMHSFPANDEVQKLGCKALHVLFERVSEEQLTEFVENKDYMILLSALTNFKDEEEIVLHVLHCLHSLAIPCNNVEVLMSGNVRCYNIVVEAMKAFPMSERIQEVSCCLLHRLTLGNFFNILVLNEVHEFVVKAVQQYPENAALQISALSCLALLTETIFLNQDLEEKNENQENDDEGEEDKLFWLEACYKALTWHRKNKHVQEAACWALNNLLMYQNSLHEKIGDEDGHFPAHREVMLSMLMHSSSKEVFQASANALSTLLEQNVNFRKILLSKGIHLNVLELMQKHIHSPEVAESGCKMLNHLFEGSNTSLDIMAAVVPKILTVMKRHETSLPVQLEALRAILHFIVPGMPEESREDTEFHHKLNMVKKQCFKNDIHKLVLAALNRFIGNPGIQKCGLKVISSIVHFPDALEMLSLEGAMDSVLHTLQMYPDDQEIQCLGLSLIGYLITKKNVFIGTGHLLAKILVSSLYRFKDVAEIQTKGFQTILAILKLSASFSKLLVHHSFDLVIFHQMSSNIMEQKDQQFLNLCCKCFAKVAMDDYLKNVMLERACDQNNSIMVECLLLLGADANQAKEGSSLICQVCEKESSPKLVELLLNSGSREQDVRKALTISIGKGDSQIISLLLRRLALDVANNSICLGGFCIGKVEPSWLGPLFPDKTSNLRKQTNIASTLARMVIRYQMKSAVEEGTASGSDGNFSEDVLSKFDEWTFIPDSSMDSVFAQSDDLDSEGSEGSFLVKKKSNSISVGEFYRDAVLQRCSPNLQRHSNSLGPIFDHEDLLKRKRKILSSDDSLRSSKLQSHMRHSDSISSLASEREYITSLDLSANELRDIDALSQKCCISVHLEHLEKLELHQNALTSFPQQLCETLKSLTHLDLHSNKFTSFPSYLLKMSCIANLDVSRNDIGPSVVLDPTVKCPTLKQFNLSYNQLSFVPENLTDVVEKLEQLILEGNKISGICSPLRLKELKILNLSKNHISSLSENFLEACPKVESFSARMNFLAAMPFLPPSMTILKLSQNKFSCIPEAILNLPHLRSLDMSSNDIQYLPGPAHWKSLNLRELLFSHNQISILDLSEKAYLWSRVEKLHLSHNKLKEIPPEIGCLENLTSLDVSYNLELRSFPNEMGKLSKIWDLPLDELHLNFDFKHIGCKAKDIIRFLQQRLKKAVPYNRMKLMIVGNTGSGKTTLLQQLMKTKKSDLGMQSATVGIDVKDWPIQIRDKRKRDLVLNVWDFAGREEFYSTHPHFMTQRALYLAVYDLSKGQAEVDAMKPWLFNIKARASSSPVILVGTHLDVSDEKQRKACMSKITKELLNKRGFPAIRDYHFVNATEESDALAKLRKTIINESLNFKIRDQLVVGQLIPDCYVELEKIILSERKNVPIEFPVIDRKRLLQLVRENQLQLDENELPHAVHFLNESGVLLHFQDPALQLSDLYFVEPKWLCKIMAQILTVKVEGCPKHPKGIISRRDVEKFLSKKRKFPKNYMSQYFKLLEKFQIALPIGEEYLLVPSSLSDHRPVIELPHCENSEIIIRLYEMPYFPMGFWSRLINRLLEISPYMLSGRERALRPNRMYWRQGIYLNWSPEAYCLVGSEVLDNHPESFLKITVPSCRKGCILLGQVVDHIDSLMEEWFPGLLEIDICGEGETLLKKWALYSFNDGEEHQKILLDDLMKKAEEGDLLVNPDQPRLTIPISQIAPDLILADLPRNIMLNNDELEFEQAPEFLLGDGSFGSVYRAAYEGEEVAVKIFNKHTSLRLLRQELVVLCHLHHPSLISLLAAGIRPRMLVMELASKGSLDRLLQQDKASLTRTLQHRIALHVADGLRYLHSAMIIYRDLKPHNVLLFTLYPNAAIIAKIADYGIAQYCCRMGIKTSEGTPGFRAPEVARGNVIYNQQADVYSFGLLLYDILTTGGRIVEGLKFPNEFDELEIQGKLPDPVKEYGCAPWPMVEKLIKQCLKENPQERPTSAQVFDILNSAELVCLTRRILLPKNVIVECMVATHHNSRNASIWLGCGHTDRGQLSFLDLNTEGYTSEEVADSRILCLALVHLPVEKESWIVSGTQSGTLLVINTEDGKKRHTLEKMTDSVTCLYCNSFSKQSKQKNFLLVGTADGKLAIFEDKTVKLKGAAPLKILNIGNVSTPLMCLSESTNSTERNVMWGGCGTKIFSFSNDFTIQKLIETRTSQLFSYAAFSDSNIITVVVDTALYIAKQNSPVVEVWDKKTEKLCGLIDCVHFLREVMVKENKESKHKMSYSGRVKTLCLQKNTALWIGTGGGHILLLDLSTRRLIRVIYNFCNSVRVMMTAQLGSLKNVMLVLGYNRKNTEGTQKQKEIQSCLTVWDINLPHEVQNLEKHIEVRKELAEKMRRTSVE
Ephrin type-A receptor 7 (Homo sapiens), sequence (Q15375 28-998 limits assumed): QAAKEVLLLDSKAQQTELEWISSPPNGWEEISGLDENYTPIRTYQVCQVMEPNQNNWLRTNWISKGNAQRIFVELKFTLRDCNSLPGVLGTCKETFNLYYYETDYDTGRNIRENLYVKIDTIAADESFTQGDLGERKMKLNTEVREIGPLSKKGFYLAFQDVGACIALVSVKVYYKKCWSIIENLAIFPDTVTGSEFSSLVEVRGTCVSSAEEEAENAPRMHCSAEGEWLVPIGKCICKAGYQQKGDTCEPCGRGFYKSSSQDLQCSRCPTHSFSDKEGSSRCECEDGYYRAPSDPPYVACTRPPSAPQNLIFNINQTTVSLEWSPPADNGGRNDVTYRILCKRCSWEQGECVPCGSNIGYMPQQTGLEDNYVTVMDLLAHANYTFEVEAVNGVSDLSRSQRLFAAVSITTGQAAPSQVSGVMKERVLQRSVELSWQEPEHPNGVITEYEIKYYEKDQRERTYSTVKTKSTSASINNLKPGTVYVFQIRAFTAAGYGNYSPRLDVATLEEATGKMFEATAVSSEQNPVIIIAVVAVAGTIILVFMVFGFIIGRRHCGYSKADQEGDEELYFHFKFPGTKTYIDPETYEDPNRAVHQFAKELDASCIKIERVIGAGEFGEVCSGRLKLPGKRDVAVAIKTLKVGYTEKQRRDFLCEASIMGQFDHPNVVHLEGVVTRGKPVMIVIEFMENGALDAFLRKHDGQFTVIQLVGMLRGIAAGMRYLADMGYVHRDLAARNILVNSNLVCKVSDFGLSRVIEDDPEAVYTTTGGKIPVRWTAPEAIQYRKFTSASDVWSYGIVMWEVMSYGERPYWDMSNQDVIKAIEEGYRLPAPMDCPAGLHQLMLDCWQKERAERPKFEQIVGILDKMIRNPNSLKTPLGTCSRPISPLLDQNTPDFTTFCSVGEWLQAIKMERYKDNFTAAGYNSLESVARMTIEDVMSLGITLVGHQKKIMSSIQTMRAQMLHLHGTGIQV
Leucine-rich repeat serine/threonine-protein kinase 2 (Homo sapiens), Q5S007 [G2019S], sequence (Q5S007 whole entry G2019S): as the sequence (Q5S007 whole entry) above, with G2019S counted along it
Serine/threonine-protein kinase 17A, sequence (Q9UEE5 whole entry): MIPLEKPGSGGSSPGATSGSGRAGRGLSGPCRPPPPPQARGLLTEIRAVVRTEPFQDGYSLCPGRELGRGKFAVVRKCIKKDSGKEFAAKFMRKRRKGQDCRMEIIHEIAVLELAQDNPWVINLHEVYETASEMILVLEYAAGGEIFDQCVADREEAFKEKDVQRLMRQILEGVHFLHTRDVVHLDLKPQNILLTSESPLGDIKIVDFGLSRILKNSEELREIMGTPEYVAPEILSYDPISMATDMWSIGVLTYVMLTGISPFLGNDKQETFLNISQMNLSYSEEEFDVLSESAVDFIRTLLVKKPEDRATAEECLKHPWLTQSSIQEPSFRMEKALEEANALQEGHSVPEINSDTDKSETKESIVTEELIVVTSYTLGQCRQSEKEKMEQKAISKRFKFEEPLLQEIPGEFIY
Serine/threonine-protein kinase 24 (Homo sapiens), sequence (Q9Y6E0 whole entry, looked up): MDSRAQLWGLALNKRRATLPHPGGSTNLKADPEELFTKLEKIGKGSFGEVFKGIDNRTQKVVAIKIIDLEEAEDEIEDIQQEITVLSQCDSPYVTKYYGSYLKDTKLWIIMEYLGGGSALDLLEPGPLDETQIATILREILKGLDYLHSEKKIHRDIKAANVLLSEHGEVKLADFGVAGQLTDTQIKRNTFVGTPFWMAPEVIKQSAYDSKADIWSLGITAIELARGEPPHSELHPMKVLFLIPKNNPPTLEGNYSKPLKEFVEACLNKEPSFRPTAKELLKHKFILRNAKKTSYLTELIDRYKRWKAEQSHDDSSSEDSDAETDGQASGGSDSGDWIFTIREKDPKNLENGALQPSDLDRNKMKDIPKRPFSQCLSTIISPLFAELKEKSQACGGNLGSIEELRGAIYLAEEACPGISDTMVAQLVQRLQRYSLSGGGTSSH

For `CCC(=O)N1CCN(c2ccc(-n3c(=O)ccc4cnc5ccc(-c6cnc7ccccc7c6)cc5c43)cc2C(F)(F)F)CC1`, the % of control [1] was 100%.
Work on `CN(C)CCOc1ccc(-c2nc(-c3ccncc3)c(-c3ccc4c(c3)CC/C4=N\O)[nH]2)cc1` yielded a % of control [2] of 0%.
`C=CC(=O)Nc1cccc(C(=O)Nc2ccc(Nc3cc(-c4[nH]c(SC)nc4C)ccn3)cc2)c1` gave a % of control ([3]; at 1 µM) of 90% and a % of control ([3]; at 5 µM) of 84%.
Work on `Nc1cnc(N2CCc3cc(S(=O)(=O)Nc4c(F)cc(Cl)cc4F)cc(N4CCCC4=O)c32)nc1` [TP-020n] yielded a % of control [4] of 81% and a % of control [5] of 97%.
Compound `CN1CCN(C(=O)c2ccc3cc2OCCOCCNc2ccn4ncc-3c4n2)CC1` has an IC50 [6] of 20 µM.
Work on `Cn1cc(-n2cnc3c(NCc4nc5cc(Cl)c(Cl)cc5[nH]4)nc(N4CCOCC4)nc32)cn1` yielded a % of inhibition [7] of 45%, a % of control [8] of 8.02% and a % of inhibition [9] of -29.3%.
`COCC(=O)NC/C=C/c1ccc2ncnc(Nc3ccc(Oc4ccc(C)nc4)c(C)c3)c2c1` [CP-724714] showed a % of control [10] of 100%.
For `N#Cc1cccc(-c2c[nH]c3ncnc(N4CCOCC4)c23)c1`, the % of inhibition [11] was -16%.
